Entries after “also recorded” stand apart in the source; their conditions may differ.
What was measured:
[1] = system: normal human liver cell line, HL7702; assay: MTT cytotoxicity on normal cells; type: cell-based; details: 48 h; for cytotoxic effects on normal liver cells (HL7702): concentration ≤10 μM
Experimental: (§1) The human colorectal cancer cell lines, HCT116 and LoVo, the breast cancer cell line, T47D, the hepatocellular carcinoma cell line, HepG2, the normal human liver cell line, HL7702, human umbilical vein endothelial cells (HUVECs), and the non-small cell lung cancer cell lines, A549, H1993, HCC827, H460, were purchased from the American Type Culture Collection (Manassas, VA, United States). Cell lines were cultured in the recommended RPMI-1640 medium (AE24464298, Hyclone, United States) and DMEM medium (AE29422278, Hyclone, United States) supplemented with 10% fetal bovine serum (FBS; JC63470, FB15015, Clark, United States) with 1% penicillin-streptomycin. Cells were maintained in an incubator at 37°C with 5% CO2 (HF90,Sanyo, Japan) and passaged every 48–72 h, after detaching with 0.25% trypsin (Sigma, United States). The compounds ZLDI-8 and NY-1 to -15 were synthesized in the laboratory of Dr. Huaiwei Ding in Shenyang Pharmaceutical University, and verified by high-performance liquid chromatography (purity >95%) for use in experiments (Supplementary Figure S1). Paclitaxel was purchased from MedChemExpress (HY-B0015, 99.97% purity, United States).
(§2) Cell viability was measured by the MTT assay. HCT116, HL7702, A549, H1993, HCC827, and H460 cells were dispensed into 96-well plates at a density of 1 × 10^5 cells/mL. After 24–48 h incubation, cells were treated with the compounds at different concentrations for the indicated periods. An assay kit (WLA073, Wanlei Co., Liaoning, China), was used according to the manufacturer’s instructions to measure LDH activity, The absorbance at 450 nm was measured with a microplate reader (Elx-800, Bio-Rad, China).
First, the effects of NY-2 and ZLDI-8 on the survival rates of four NSCLC cell lines, A549, H1993, HCC827, H460, were compared by the MTT cytotoxicity assay. The various types of NSCLC cells were incubated with increasing concentrations of NY-2 and ZLDI-8 (1.25, 2.5, 5, 10, and 20 μM), and the cell viability at 48 h was measured. […]

[2] = Hepatotoxicity and nephrotoxicity experiments in KM mice; type: in vivo; details: for pathological changes of liver and kidney tissues (H&E): vs control; for effect on overall antioxidant capacity: T-AOC kit, ABTS method
Experimental: Animal experiments were approved by the Ethics Committee on Laboratory Animal Management of Shenyang Pharmaceutical University (Approval Document No. SYPU-SQ-001). All animals received humane care according to the local guidelines for the Care and Use of Laboratory Animals of the Shenyang Pharmaceutical University. All animals were housed under specific pathogen-free (SPF) conditions at 25°C with 50% humidity, with free access to food and water for 7 days to adapt. KM mice (male, 4–5 weeks old and weighing 18–22 g) were purchased from Liaoning Changsheng Biotechnology Co., Ltd. (Liaoning, China, animal license #SCXK-2020–0001). For the hepatotoxicity and nephrotoxicity assays, NY-2 was injected via tail vein into KM mice, and the results were used in deciding on the test dose for antitumor activity in a nude mouse cancer model. Its influence on the immune system was also determined. The treatment groups were ZLDI-8, NY-2, DMSO control, and normal saline control, with six mice in each group. The mice were fasted for 12 h before the experiment, but were allowed to drink water freely. ZLDI-8 and NY-2 were dissolved in 1% DMSO containing 1% Tween and 6 mg/kg was administered by a daily tail vein injection for seven consecutive days ([Lu et al., 2020]).
After injection of the compounds, blood was drawn and serum was collected for the determination of ALT and AST levels (Nanjing Jiancheng Bioengineering Institute, China, C009-2-1 and C010-2-1) to assess liver function. Serum creatinine (sCr, Nanjing Jiancheng Bioengineering Institute, China, C011-2-1) and blood urea nitrogen (BUN, Nanjing Jiancheng Bioengineering Institute, China, C013-2-1) were measured to assess renal function. Tumor necrosis factor-α (TNF-α, Cusabio, Wuhan, China, CSB-E04741m) and interleukin-6 (IL-6, Cusabio, Wuhan, China, CSB-E04639m) were used as markers to evaluate the immune inflammatory response, and an assay kit (T-AOC, S0119, Beyotime) was used to measure total antioxidant capacity by the ABTS method. Mice were euthanized by cervical dislocation, liver and kidney tissue was removed and fixed in formalin, dehydrated in ethanol, embedded in paraffin, and sectioned for staining with hematoxylin and eosin (H&E).
KM mice were treated with ZLDI-8 or NY-2 by tail vein injection (6 mg/kg) for 7 days, then the mice were euthanized and liver and kidney tissues were removed and sectioned. For the experiment with BALB/c nude mice, the tail vein injections of NY-2 (6 mg/kg) were continued for 28 days, and the lungs, tumor, heart, liver, and kidney were removed. Trimmed tissue samples were fixed in 4% paraformaldehyde for 24 h, dehydrated in graded ethanol solutions, embedded in paraffin and sectioned. Sections for staining were dewaxed with xylene and then rehydrated, and hematoxylin-eosin staining was performed, after which the sections were again dehydrated in ethanol and cleared with xylene before being mounted on a slide, cover-slipped and examined microscopically. The remainder of the tumors and tissues was frozen in liquid nitrogen for other studies.

[3] = system: LoVo; assay: MTT cell viability assay; type: cell-based, human; details: Homo sapiens, LoVo colorectal cancer cells
Experimental: as §1, §2
(§3) The preliminary antitumor activity of the series of ZLDI-8 derivatives, NY-1 to -15 was screened by the MTT cell viability assay. […] The antitumor activity of NY-2 on HCT116 cells was concentration- and time-dependent, and slightly better than that of the original compound, ZLDI-8.

[4] = system: H460; assay: MTT cytotoxicity assay, NSCLC cells; type: cell-based; details: Homo sapiens, NCI-H460, 48 h
Experimental: as §1, §2
(§4) First, the effects of NY-2 and ZLDI-8 on the survival rates of four NSCLC cell lines, A549, H1993, HCC827, H460, were compared by the MTT cytotoxicity assay. The various types of NSCLC cells were incubated with increasing concentrations of NY-2 and ZLDI-8 (1.25, 2.5, 5, 10, and 20 μM), and the cell viability at 48 h was measured. […] Considering that the culture time might be too long, NY-2 was selected for 48 h treatment at increasing concentrations of 2.5, 5.0, and 10 μM as the experimental conditions for subsequent in vitro experiments.

[5] = system: H1993; assay: MTT cytotoxicity assay, NSCLC cells; type: cell-based; details: Homo sapiens, NCI-H1993, 48 h
Experimental: as §1, §2, §4

[6] = system: A549; assay: MTT cytotoxicity assay, NSCLC cells; type: cell-based; details: Homo sapiens, 48 h
Experimental: as §1, §2, §4

[7] = system: HCC827; assay: MTT cytotoxicity assay, NSCLC cells; type: cell-based; details: Homo sapiens, 48 h
Experimental: as §1, §2, §4

[8] = system: HepG2; assay: MTT cell viability assay; type: cell-based, human; details: Homo sapiens, HepG2 hepatocellular carcinoma cells
Experimental: as §1, §2, §3

[9] = system: T47D; assay: MTT cell viability assay; type: cell-based, human; details: Homo sapiens, T47D breast cancer cells
Experimental: as §1, §2, §3

[10] = 6 mg/kg daily tail vein injection, 7 days

Compound | cytotoxic effects on normal liver cells (HL7702) [1] | toxic effects on normal liver cells (HL7702) ([1]; concentrations >10 μM) | effect on IL-6 and TNF-α levels compared with the control group [2, 10] | levels of AST, ALT, sCr, and BUN compared with the control group ([2]; 6 mg/kg daily tail vein injection, 7 days, serum) | pathological changes of liver and kidney tissues (H&E) [2, 10] | effect on overall antioxidant capacity [2] | IC50 [3] | IC50 [4] | IC50 [5] | IC50 [6] | IC50 [7] | IC50 [8] | IC50 [9] | BUN compared with the control group ([2]; 6 mg/kg daily tail vein injection, 7 days, serum, only significant difference)
Cc1c(C=C2C(=O)NC(=S)NC2=O)c2ccccc2n1CCOc1ccc(F)cc1 [NY-2] | neither ZLDI-8 nor NY-2 had any obvious cytotoxic effects on normal cells; also recorded: no obvious cytotoxic effects | slightly weaker toxic effects than ZLDI-8 | no significant effect | no significant differences | no obvious pathological changes | neither ZLDI-8 nor NY-2 had any overt effect | 5.82 µM | 13.5 ± 0.58 µM | 4.78 ± 0.64 µM | 8.95 ± 0.58 µM | 5.98 ± 0.75 µM | 20 µM | 34.7 µM | 
Cc1ccc(OCCn2c(C)c(C=C3C(=O)NC(=S)NC3=O)c3ccccc32)c(C)c1 [ZLDI-8, reference compound] | neither ZLDI-8 nor NY-2 had any obvious cytotoxic effects on normal cells |  | no significant effect |  | no obvious pathological changes | neither ZLDI-8 nor NY-2 had any overt effect | 9.65 µM | 25.2 ± 2 µM | 8.33 ± 1.01 µM | 23.1 ± 2.27 µM | 9.39 ± 0.99 µM | 22.9 µM | 29.1 µM | possible decrease

— publication PMC9884808, “Pharmacokinetics, tissue distribution, and antitumor activity of a novel compound, NY-2, in non-small cell lung cancer” (Frontiers in Pharmacology, 2023)
